Results as given in article PMC4967898, “Peptides interfering with protein-protein interactions in the ethylene signaling pathway delay tomato fruit ripening” (Scientific Reports, 2016).
Entries after “also recorded” stand apart in the source; their conditions may differ.

T1: tomato EIN2-ETR1 complex (Solanum lycopersicum, UniProt Q41342)
T1 construct: made in house; host or cells: E. coli BL21(DE3) with pRARE (LeEIN2 fragment); E. coli (LeETR1)
T1 sequence (Q41342 1-754): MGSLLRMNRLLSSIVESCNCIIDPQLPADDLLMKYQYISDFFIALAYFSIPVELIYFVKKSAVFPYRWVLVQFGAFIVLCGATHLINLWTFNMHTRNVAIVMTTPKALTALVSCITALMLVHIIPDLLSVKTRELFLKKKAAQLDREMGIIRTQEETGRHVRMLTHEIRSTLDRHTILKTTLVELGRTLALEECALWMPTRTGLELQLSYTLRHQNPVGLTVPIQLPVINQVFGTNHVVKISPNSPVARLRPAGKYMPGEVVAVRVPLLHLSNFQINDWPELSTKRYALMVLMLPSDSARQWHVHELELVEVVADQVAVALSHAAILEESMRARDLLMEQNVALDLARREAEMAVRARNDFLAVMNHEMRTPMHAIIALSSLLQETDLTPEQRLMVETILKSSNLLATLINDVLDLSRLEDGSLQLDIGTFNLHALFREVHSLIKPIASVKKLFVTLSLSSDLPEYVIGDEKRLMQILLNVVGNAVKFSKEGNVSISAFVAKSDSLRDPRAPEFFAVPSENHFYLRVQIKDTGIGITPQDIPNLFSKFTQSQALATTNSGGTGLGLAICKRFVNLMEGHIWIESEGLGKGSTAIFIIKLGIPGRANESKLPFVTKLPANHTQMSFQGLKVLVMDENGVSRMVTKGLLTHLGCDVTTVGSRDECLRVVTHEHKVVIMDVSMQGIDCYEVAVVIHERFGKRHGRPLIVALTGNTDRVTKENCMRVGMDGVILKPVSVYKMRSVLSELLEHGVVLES

T2: C-terminal part of tomato EIN2 (LeEIN2^462–1316) (tomato, UniProt Q6Q2C1 462-1316, unlabeled in the MST titration of labeled LeETR1; Alexa Fluor 488 label in the reverse MST titration; Alexa Fluor 568 succinimidyl-ester label in the FRET assay)
T2 construct: the N-terminal membrane domain (aa 1-461) was deleted from the full-length cDNA; The purified protein was detected with an anti-polyhistidine antibody; no tag removal is described; also called C-terminal domain of tomato EIN2; source: E. coli BL21(DE3) with pRARE, purified (HisTrap FF, PD-10 desalting)
T2 sequence (looked up): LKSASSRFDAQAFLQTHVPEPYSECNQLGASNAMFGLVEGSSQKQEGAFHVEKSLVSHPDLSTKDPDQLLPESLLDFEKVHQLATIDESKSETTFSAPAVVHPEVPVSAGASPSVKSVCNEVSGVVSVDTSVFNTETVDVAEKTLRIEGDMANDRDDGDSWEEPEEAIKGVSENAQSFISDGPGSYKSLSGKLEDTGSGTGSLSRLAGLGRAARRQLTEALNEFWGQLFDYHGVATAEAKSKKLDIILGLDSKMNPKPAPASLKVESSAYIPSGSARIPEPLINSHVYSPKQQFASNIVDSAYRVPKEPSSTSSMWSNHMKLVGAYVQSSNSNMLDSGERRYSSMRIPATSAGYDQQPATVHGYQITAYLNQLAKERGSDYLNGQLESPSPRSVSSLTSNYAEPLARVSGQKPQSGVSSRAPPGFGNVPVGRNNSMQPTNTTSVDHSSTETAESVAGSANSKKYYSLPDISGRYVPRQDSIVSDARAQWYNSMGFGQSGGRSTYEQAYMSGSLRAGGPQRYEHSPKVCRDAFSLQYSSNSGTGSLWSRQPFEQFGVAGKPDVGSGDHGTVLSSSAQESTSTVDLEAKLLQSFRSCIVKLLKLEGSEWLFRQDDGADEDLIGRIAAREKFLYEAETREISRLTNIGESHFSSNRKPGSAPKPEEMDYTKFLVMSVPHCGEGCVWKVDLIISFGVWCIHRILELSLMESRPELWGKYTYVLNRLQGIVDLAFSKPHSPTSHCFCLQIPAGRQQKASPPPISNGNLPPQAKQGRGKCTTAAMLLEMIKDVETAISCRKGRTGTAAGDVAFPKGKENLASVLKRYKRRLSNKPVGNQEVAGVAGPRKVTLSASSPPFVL

B1: NOP-1 (LKRYKRRL-NH2) (peptide)
peptide: H-LKRYKRRL-NH2
notes: the motif is fully conserved in tomato EIN2; also called NLS-based peptide; source: synthetic peptide (Molecular Proteomics Laboratory of the BMFZ Düsseldorf, >90% purity)
B2: tomato ethylene receptor protein LeETR1 (receptor, UniProt Q41342 1-754, looked up)
chain: T1 sequence (Q41342 1-754)
modifications: Alexa Fluor 488 succinimidyl-ester label (MST with LeEIN2, FRET assay); Alexa Fluor 488-Maleimide label (MST with NOP-1); non-labeled in the reverse MST titration
notes: ethylene receptor ETR1 of tomato (LeETR1); Membrane protein kept in 0.015% Fos-Choline-16 for MST; also called tomato ETR1; tomato receptor

Assays:
tomato EIN2-ETR1 complex = biological target: T1, tomato EIN2-ETR1 complex; assay: FRET assay of LeEIN2-LeETR1 complex formation; format: biochemical; details: FRET assay; 100 μM peptide where stated; LeETR1-Alexa Fluor 488 and LeEIN2-Alexa Fluor 568, 3 μM each
Text: (§1) For this purpose, we made use of a fluorescence resonance energy transfer (FRET)-based in vitro assay, originally established for the respective Arabidopsis signaling proteins. Recombinant ethylene proteins LeETR1 and LeEIN2^462–1316 were labeled with fluorescent Alexa dyes[36] as described in the Methods section. LeETR1 was labeled with Alexa Fluor 488, while LeEIN2^462–1316 was labeled with Alexa Fluor 568. As the emission spectrum of the donor fluorophore partially overlaps with the excitation spectrum of the acceptor fluorophore, the dyes form a FRET pair and energy transfer from the donor to the acceptor fluorophore is possible when both probes get in close proximity. […] Formation of the complex is monitored by FRET from the donor molecule Alexa Fluor 488 to the acceptor molecule Alexa Fluor 568. Processes or molecules that prevent complex formation result in a reduced FRET from the donor to the acceptor, which is detected as reduced acceptor fluorescence at the emission maximum.
Quantitative analysis of inhibitory peptides on ETR1-EIN2 complex by FRET
For the FRET assay, recombinant LeETR1 was labeled with Alexa Fluor 488 succinimidyl-ester and LeEIN2^462–1316 was labeled with Alexa Fluor 568 succinimidyl-ester (both Life Technologies) in a buffer containing 50 mM potassium phosphate pH 8.0, 300 mM NaCl and 5% (v/v) glycerol following manufacturer’s protocol (MolecularProbes Protein Labeling Kit). Labeled proteins were transferred in FRET buffer containing 50 mM Tris-HCl pH 8.0, 300 mM NaCl, 0.05% (v/v) Tween 20, 5% (v/v) glycerol and mixed at a final concentration of 3.0 μM each. […] The FRET-based binding assay was carried out in 384-well microplates using an Infinite M200 Pro microplate reader (Tecan) at 455 nm excitation wavelength. Emission spectra were detected between 565 nm to 645 nm. FRET efficiencies were calculated from the maximal emission in the absence and in the presence of the supplied peptides and the half maximal inhibitor concentration IC50 was calculated as previously described.

[1] = test system: green, immature tomato fruits; assay: Tomato fruit ripening after inhibitor treatment; format: in vivo, tomato (Solanum pimpinellifolium); details: for delay in maturation of tomato fruits: 200 μM, all tested inhibitors and all applications of NOP-1 (injection, incubation, surface application), documented for 20 days, three fruits per application
Text: To further investigate the potential of NOP-1 for agricultural applications, we tested the effect of the NOP-1 peptide on tomato fruit ripening in comparison to other known inhibitors of ethylene responses. To this end we tested […] (MCP) and aminoethoxyvinylglycine (AVG). MCP is a known inhibitor of ethylene signaling blocking ethylene binding at the receptor proteins, whereas AVG blocks ethylene production in the plant by competitive inhibition of ACC synthases. To monitor inhibition of the fruit ripening process, we treated green, immature tomato fruits with 200 μM NOP-1, MCP or AVG, respectively and documented the fruit ripening process for 20 days. Figure 3 compares the effect of the different inhibitor treatments on tomato fruits to controls lacking the inhibitory treatment that contain either buffer alone or a random sequence control peptide (ROP-1). […] The bioassays underline the high inhibitory potential of NOP-1 on the ripening process compared to the well-known and efficient inhibitors of ethylene responses.
Inhibitor-treatment of tomato fruits
Aminoethoxyvinyl glycine (AVG) was purchased from Sigma-Aldrich, St Louis, MO (purity ~95%). SmartFresh^SM (AgroFresh, Spring House, PA) was used as sugar-based powder formulation of 1-MCP. Concentration of 1-MCP was calculated according to the percentage of active ingredient (0.14%) and release from the SmartFresh^SM powder. For comparison concentration of all inhibitors are expressed in terms of molarity. For treatment of tomato fruits with NOP-1, AVG and MCP, inhibitors were dissolved in the FRET buffer described in the previous section to a final concentration of 200 μM. Green tomato fruits (Solanum pimpinellifolium) from the same estimated developmental stage were harvested from the panicle and water-cleaned. 300 μL of the inhibitor solution was applied onto the tomato surface with a brush and the fruits were air-dried for 30 min. As an alternative application, tomato fruits were plunged into 2 mL of the inhibitor solution and incubated for 30 min in this solution or 200 μL of the peptide-containing solution were carefully injected into the tomato tissue by a hypodermic syringe. Three individual tomato fruits were treated for the different applications of the peptide in order to document the ripening process. After inhibitor-treatment tomato fruits were transferred to a vial closed with aluminum foil and stored in the dark at room temperature. Maturation process was documented every second day for at least 20 days. For measurement of ethylene production, green tomato fruits were treated as described above.

[2] = Fluorescence of the dyes on their own (FRET control); details: 100 μM peptide; free dyes
Text: as §1
(b) Calculation of IC50 value for NOP-1. Data were obtained in the FRET-assay in presence of increasing concentrations of NOP-1 peptide. […] (c) Determination of Kd value of NOP-1 binding to LeETR1 based on MST is illustrated. MST-signal is plotted against the NOP-1 concentration. […] All data (a,b,c) represent the mean +/− standard deviation.

[3] = biological target: B2; assay: MST; 50 nM LeETR1 labeled with Alexa Fluor 488-Maleimide titrated with NOP-1 (3.8 nM to 31 μM); 50 mM Tris-HCl pH 8.0, 300 mM NaCl, 0.015% Fos-Choline-16; 80% MST power; 1:1 model; details: both partners purified
[4] = biological target: B2; assay: FRET or BRET; in vitro FRET: LeETR1-Alexa Fluor 488 (donor) and LeEIN2 462-1316-Alexa Fluor 568 (acceptor), 3.0 μM each; 50 mM Tris-HCl pH 8.0, 300 mM NaCl, 0.05% Tween 20, 5% glycerol; proteins pre-incubated with peptides; excitation 455 nm, 384-well plates; details: both partners purified
[5] = biological target: T2, C-terminal part of tomato EIN2 …; assay: MST; LeEIN2 462-1316 labeled with Alexa Fluor 488 titrated with non-labeled LeETR1 (Supplementary Fig. S3); details: both partners purified
[6] = biological target: T2, C-terminal part of tomato EIN2 …; assay: MST; 0.4 μM LeETR1-Alexa Fluor 488 titrated with LeEIN2 462-1316 (4.69 nM to 9.6 μM); 50 mM Tris-HCl pH 8.0, 300 mM NaCl, 0.015% Fos-Choline-16; Monolith NT.115, 80% MST power, triplicates; details: both partners purified

Molecule: EFLYMSVN-NH2 [ROP-1, reference compound]
- effect on tomato EIN2-ETR1 complex formation (tomato EIN2-ETR1 complex): no effect on tomato EIN2-ETR1 complex formation was observed
- effect on tomato fruit ripening (in words) ([1]; compared with buffer or untreated control, inhibitors at 200 μM): no effect on the ripening process; also recorded: A related delay in ripening was not observed
- effect on fluorescence of the dyes on their own [2]: not affected by the peptides; also recorded: Neither of both peptides affected fluorescence of the free, unlabeled dyes

Molecule: NCCO/C=C/[C@H](N)C(=O)O [AVG, aminoethoxyvinylglycine, reference compound]
- delay in maturation of tomato fruits [1]: 10 to 15 days

Molecule: CC1=CC1 [MCP, 1-methylcyclopropane, reference compound]
- delay in maturation of tomato fruits [1]: 10 to 15 days

Molecule: B1
- Kd [3]: 156 nM
- IC50 [4]: 160000 nM

Molecule: B2
- Kd [5]: 651 nM
- Kd [6]: 619 nM
